Source: patent US9802982B2, “Peptide and uses thereof” (Tunghai University, priority 2014, dated 2017)
In brackets after ≈: the same amount, converted by molar mass. Like-named read-outs stand apart in the source and are kept apart here. Where a SMILES comes first, the peptide text is derived from it. Where no end group is shown, it is not given here. [ ]: non-standard residue; d: D form. NMeW = CN[C@@H](Cc1c[nH]c2ccccc12)C(=O)O; NMeR = CN[C@@H](CCCNC(=N)N)C(=O)O

What was measured:
Type in all cases: cell-based
[1] = system: Escherichia coli (ATCC 25922)
Description: (§1) Three bacteria strains, Escherichia coli (ATCC 25922), Staphylococcus aureus (ATCC25923), and Pseudomon asaeruginosa (ATCC27853) were brought from the Food Industry Research and Development Institute, Hsinchu, Taiwan.
(§2) Each of the strain (0.1-0.2 mL) was inoculated on an agar gel medium (Merck, Whitehouse, Station, N.J., USA) and isolated into single colony by streak plate method. Each of the strain was spread evenly by a sterile L-shaped glass rod and incubated overnight. After that, the single colony on each agar gel medium was transferred to liquid LB medium (Merck, Whitehouse, Station, N.J., USA) and incubated at 37° C. in an incubator.
(§3) Each bacteria strain from example 6 was incubated to its mid-log phase at 37° C. in 2 mL Lysogeny broth (LB) in an incubator, wherein the mid-log phase of Escherichia coli is 4 hours, the mid-log phase of Staphylococcus aureus is 6 hours, and the mid-log phase of Pseudomonas aeruginosa is 8 hours. According to 0.5 McFarland Standard, the number of bacteria in a broth is 1×10^8 CFU/mL when the OD595 is 0.08-0.09. […] And then, the number of bacteria in each broth was diluted from 1×10^8 CFU/mL to […]. Finally, each broth has bacterial number of 5×10^5 CFU/mL in Mueller Hinton broth (MHB).
(§4) 199 μL of each of the foresaid diluted broth was respectively placed into a 96 well plate, and 1 μL of each peptide from example 5 was added into each well to incubate at 37° C. in an incubator for 16 hours. The OD595 of the coculture of each broth and each peptide was measured by a microplate spectrophotometer. In addition, the bacterial broth without the peptide served as positive control (PC), and the free broth MHB culture medium served as negative control (NC). The minimum inhibitory concentration (MIC90) of each peptide against each bacteria was measured according to the following equation, wherein A is the absorbance. MIC90≦[(Apeptide−ANC)(APC−ANC)]

[2] = system: Pseudomonas aeruginosa (ATCC27853)
Description: as §1, §2, §3, §4

[3] = system: Staphylococcus aureus (ATCC25923)
Description: as §1, §2, §3, §4

human red blood cells = assay: Hemolysis assay
Description: 1-3 mL human blood was centrifuged at 3000 rpm, 4° C. for 10 minutes. The supernatant was discarded. The remaining was washed with cold phosphate buffer saline (PBS) and centrifuged at 3000 rpm, 4° C. for 1 minute. The supernatant was discarded. The remaining red blood cells were washed and diluted as 2% red blood cell solution with cold PBS.
A mixture of 100 μL red blood cell solution and 100 μL PBS was served as a negative control. A mixture of 100 μL red blood cells solution and 100 μL 0.2% Triton X-100 was served as a positive control. The solution of peptide 1, peptide 2, peptide 3, peptide 5, and peptide 6 were respectively mixed with red blood cell solution with the same volume and incubated at 37° C. for 1 hour. After incubation, the mixture was centrifuged at 3000 rpm, 4° C. for 10 minutes. Each of the supernatant was collected to measure the absorbance at wavelength of 405 nm by an ELISA plate reader. The hemolysis of each peptide was calculated according to the following equation, wherein Abs represents the absorbance. [(Abspeptide−AbsPBS)/(AbsTriton X-100−AbsPBS)]×100

[4] = system: Escherichia coli (ATCC 25922); remark: listed apart in the source
Description: as §1, §2, §3, §4
(§5) In addition, to measure the minimum bactericidal concentration (MBC), 1 μL of each broth cocultured with the peptide was sprayed on a flat plate medium at 37° C. in an incubator for 24 hours. If the incubation result has no bacteria, the concentration of the reagent is MBC.

[5] = system: Pseudomonas aeruginosa (ATCC27853); remark: listed apart in the source
Description: as §1, §2, §3, §4, §5

[6] = system: Staphylococcus aureus (ATCC25923); remark: listed apart in the source
Description: as §1, §2, §3, §4, §5

[7] = 5×10^5 CFU/mL in MHB, 37° C., 16 hours, OD595
[8] = coculture plated on flat plate medium, 37° C., 24 hours, no bacteria

Molecule | Minimum inhibitory concentration (MIC90) Escherichia coli ([1]; ATCC 25922, 16 h) [µM] | Minimum inhibitory concentration (MIC90) Pseudomonas aeruginosa ([2]; ATCC27853, 16 h) [µM] | Minimum inhibitory concentration (MIC90) Staphylococcus aureus ([3]; ATCC25923, 16 h) [µM] | Hemolysis (%) (human red blood cells; red cells of human, 1 h) | Minimum bactericidal concentration (MBC99.9) Escherichia coli ([4]; ATCC 25922, 24 h) [µM] | Minimum bactericidal concentration (MBC99.9) Pseudomonas aeruginosa ([5]; ATCC27853, 24 h) [µM] | Minimum bactericidal concentration (MBC99.9) Staphylococcus aureus ([6]; ATCC25923, 24 h) [µM] | other results
KWLRRVWRWWR-NH2 [peptide 6, KWLRRVWRWWR] | 5 | 5 | 5 | 70.7 | 5 | 5 | 10 | 
KWLRWVRRRWW-NH2 [peptide 3, KWLRWVRRRWW] | 2.5 | 5 | 2.5 | 3.4 | 10 | 20 | 5 | Hemolysis, comparison in words (human red blood cells): the lowest
CC(C)C[C@H](NC(=O)[C@H](Cc1c[nH]c2ccccc12)NC(=O)[C@@H](N)CCCCN)C(=O)N[C@@H](CCCNC(=N)N)C(=O)N(C)[C@@H](CCCNC(=N)N)C(=O)N[C@H](C(=O)N[C@@H](Cc1c[nH]c2ccccc12)C(=O)N[C@@H](CCCNC(=N)N)C(=O)N[C@@H](Cc1c[nH]c2ccccc12)C(=O)N[C@@H](Cc1c[nH]c2ccccc12)C(=O)N[C@@H](CCCNC(=N)N)C(N)=O)C(C)C [peptide 5, KWLRMeRVWRWWR] (H-KWLR[NMeR]VWRWWR-NH2) |  |  |  | 44.9 |  |  |  | 
Triton X-100 [Positive control, reference compound] |  |  |  |  |  |  |  | Hemolysis (%) (human red blood cells): 100%
CC(C)C[C@H](NC(=O)[C@H](Cc1c[nH]c2ccccc12)NC(=O)[C@@H](N)CCCCN)C(=O)N[C@@H](CCCNC(=N)N)C(=O)N[C@@H](CCCNC(=N)N)C(=O)N[C@H](C(=O)N(C)[C@@H](Cc1c[nH]c2ccccc12)C(=O)N[C@@H](CCCNC(=N)N)C(=O)N[C@@H](Cc1c[nH]c2ccccc12)C(=O)N[C@@H](Cc1c[nH]c2ccccc12)C(=O)N[C@@H](CCCNC(=N)N)C(N)=O)C(C)C [peptide 1, KWLRRVMeWRWWR] (H-KWLRRV[NMeW]RWWR-NH2) | 5 (≈ 8.71 µg/mL) | 10 (≈ 17.4 µg/mL) | 5 (≈ 8.71 µg/mL) | 20.1 | 20 (≈ 34.8 µg/mL) | 10 (≈ 17.4 µg/mL) | 40 (≈ 69.6 µg/mL) | Hemolysis, comparison in words (human red blood cells): significantly lower than the peptide 5
CC(C)C[C@H](NC(=O)[C@H](CCCNC(=N)N)NC(=O)[C@@H](N)CCCCN)C(=O)N[C@@H](CCCNC(=N)N)C(=O)N[C@@H](CCCNC(=N)N)C(=O)N[C@H](C(=O)N(C)[C@@H](Cc1c[nH]c2ccccc12)C(=O)N[C@@H](CCCNC(=N)N)C(=O)N[C@@H](Cc1c[nH]c2ccccc12)C(=O)N[C@@H](Cc1c[nH]c2ccccc12)C(=O)N[C@@H](CCCNC(=N)N)C(N)=O)C(C)C [peptide 4, KRLRRVMeWRWWR] (H-KRLRRV[NMeW]RWWR-NH2; N-terminus assumed) | 20 (≈ 34.2 µg/mL) | 20 (≈ 34.2 µg/mL) | 10 (≈ 17.1 µg/mL) |  | 20 (≈ 34.2 µg/mL) | 20 (≈ 34.2 µg/mL) | 10 (≈ 17.1 µg/mL) | 
KWLRRPWRRWR-NH2 [peptide 2, KWLRRPWRRWR] |  |  |  |  |  |  |  | Minimum inhibitory concentration (MIC90) Escherichia coli [1, 7]: 2.5 µM; Minimum inhibitory concentration (MIC90) Pseudomonas aeruginosa [2, 7]: 5 µM; Minimum inhibitory concentration (MIC90) Staphylococcus aureus [3, 7]: 2.5 µM; Hemolysis, comparison in words (human red blood cells; comparison among the peptides of Table 4): the lowest; Minimum bactericidal concentration (MBC99.9) Escherichia coli [4, 8]: 10 µM; Minimum bactericidal concentration (MBC99.9) Pseudomonas aeruginosa [5, 8]: 20 µM; Minimum bactericidal concentration (MBC99.9) Staphylococcus aureus [6, 8]: 5 µM
